Here are results for 43 compounds from ChEMBL document CHEMBL1122402, “Antidiabetic activity of some 1-substituted 3,5-dimethylpyrazoles” (1983).

Molecules are shown by their SMILES.

The species named for the assay is Mus musculus. The assay is described as follows: Hypoglycemic activity in alloxan-diabetic female albino mice expressed as percentage reduction of plasma glucose levels. Details: concentration or dose not given beside the values. The format is functional.
`Cc1cc(C)n(C(=O)c2ccncc2)n1`: the Reduction is listed as below 1%.
With `CCCCNC(=O)NS(=O)(=O)c1ccc(NC(=O)n2nc(C)cc2C)cc1`, the Reduction worked out at 7.5%.
Turning to `Cc1cc(C)n(C(=O)c2ccc(NC(=O)Nc3ccccc3)cc2)n1`, the Reduction came to 6%.
As for `CCNC(=O)NS(=O)(=O)c1ccc(NC(=O)n2nc(C)cc2C)cc1`, the Reduction is listed as 4%.
`Cc1cc(C)n(CC(=O)n2nc(C)cc2C)n1` came in with a Reduction of 2.5%.
`Cc1nn(C(=O)Nc2ccc(S(=O)(=O)NC(=O)NC3CCCCC3)cc2)c(C)c1Br` came in with a Reduction of 4%.
In turn, `Cc1cc(C)n(CC(=O)NNC(=O)NC2CCCCC2)n1` showed a Reduction of 2.5%.
In turn, `Cc1cc(C)n(C(=O)c2ccc(S(=O)(=O)NC(=O)NCc3ccccc3)cc2)n1` had a Reduction below 1%.
Then `CCCNC(=O)Nc1ccc(C(=O)n2nc(C)c(Br)c2C)cc1`, with 5%.
The result for `CCCNC(=O)Nc1ccc(C(=O)n2nc(C)cc2C)cc1` reads 8%; that for `Cc1cc(C)n(C(=O)Nc2ccc(S(=O)(=O)NC(=O)NC3CCCCC3)cc2)n1`, 9%.
With `Cc1cc(C)n(C(=O)Nc2ccc(S(=O)(=O)NC(=O)Nc3ccccc3)cc2)n1`, the Reduction was 2%.
`CCCCNC(=O)NNC(=O)Cn1nc(C)cc1C` registered a Reduction of 2%.
For the compound `Cc1cc(C)n(CC(=O)NNC(=O)NCc2ccccc2)n1`, the Reduction is on record as below 1%.
Then `CCCCNC(=O)Nc1ccc(C(=O)n2nc(C)c(Br)c2C)cc1`, with 6%; and `Cc1cc(C)n(C(=O)Nc2ccc(S(=O)(=O)NC(=O)NCc3ccccc3)cc2)n1`, with 1%; and `CCCNC(=O)NNC(=O)Cn1nc(C)cc1C`, with 1%.
Compound `Cc1cc(C)n(C(=O)c2cccnc2)n1` yielded a Reduction below 1%.
For `Cc1nn(-c2ccc(S(=O)(=O)NC(=O)Nc3ccccc3)cc2)c(C)c1Br`, the Reduction is below 1%.
Compound `Cc1cc(C)n(C(=O)c2ccccc2O)n1` came in with a Reduction below 1%.
Take `CCCCNC(=O)NS(=O)(=O)c1ccc(NC(=O)n2nc(C)c(Br)c2C)cc1`: the Reduction worked out at 2%.
`CCNC(=O)NS(=O)(=O)c1ccc(C(=O)n2nc(C)cc2C)cc1` had a Reduction below 1%.
Turning to `CCCCNC(=O)NS(=O)(=O)c1ccc(-n2nc(C)c(Br)c2C)cc1`, the Reduction turned out to be 3%.
`Cc1cc(C)n(C(=O)n2nc(C)cc2C)n1` yielded a Reduction of 2.5%.
`Cc1nn(C(=O)c2ccc(S(=O)(=O)NC(=O)NCc3ccccc3)cc2)c(C)c1Br` yielded a Reduction of 2%.
`Cc1nn(C(=O)c2ccc(S(=O)(=O)NC(=O)Nc3ccccc3)cc2)c(C)c1Br` returned a Reduction of 3%.
Then `CCCNC(=O)NS(=O)(=O)c1ccc(-n2nc(C)c(Br)c2C)cc1`, with 2%.
For `Cc1nn(-c2ccc(S(=O)(=O)NC(=O)NC3CCCCC3)cc2)c(C)c1Br`, the Reduction amounted to 2.5%.
As to `CCNC(=O)NS(=O)(=O)c1ccc(-n2nc(C)c(Br)c2C)cc1`, the Reduction is below 1%.
Compound `CCNC(=O)NNC(=O)Cn1nc(C)cc1C` had a Reduction of 1%.
For `Cc1cc(C)n(C(=O)c2ccc(S(=O)(=O)NC(=O)NC3CCCCC3)cc2)n1`, the Reduction was below 1%.
`Cc1nn(C(=O)c2ccc(NC(=O)Nc3ccccc3)cc2)c(C)c1Br` registered a Reduction below 1%.
The compound `Cc1nn(C(=O)c2ccc(NC(=O)NC3CCCCC3)cc2)c(C)c1Br` returned a Reduction of 2.5%.
With `Cc1cc(C)n(C(=O)c2ccc(S(=O)(=O)NC(=O)Nc3ccccc3)cc2)n1`, the Reduction stood at 2%.
Turning to `CCCNC(=O)NS(=O)(=O)c1ccc(NC(=O)n2nc(C)c(Br)c2C)cc1`, the Reduction is listed as 1%.
The result for `CCCNC(=O)NS(=O)(=O)c1ccc(C(=O)n2nc(C)cc2C)cc1` reads below 1%; that for `CCCNC(=O)NS(=O)(=O)c1ccc(NC(=O)n2nc(C)cc2C)cc1`, 6%.
Then `Cc1nn(C(=O)c2ccc(S(=O)(=O)NC(=O)NC3CCCCC3)cc2)c(C)c1Br`, with 1%; and `CCCCNC(=O)Nc1ccc(C(=O)n2nc(C)cc2C)cc1`, with 15%; and `CCNC(=O)NS(=O)(=O)c1ccc(NC(=O)n2nc(C)c(Br)c2C)cc1`, with below 1%.
With `Cc1cc(C)n(C(=O)c2ccc(NC(=O)NC3CCCCC3)cc2)n1`, the Reduction turned out to be 20%.
Then `CCNC(=O)NS(=O)(=O)c1ccc(C(=O)n2nc(C)c(Br)c2C)cc1`, with 1%; and `CCCCNC(=O)NS(=O)(=O)c1ccc(C(=O)n2nc(C)cc2C)cc1`, with 2%.
